Like-named read-outs stand apart in the source and are kept apart here.
Columns and labels:
[1] = format: physicochemical; details: for Ea (activation energy for decomposition) / k at 25° C.: in xylene
Experimental: Rates of dioxetane decomposition were monitored by the decay of chemiluminescence of aerated solutions. A cylindrical Pyrex vial equipped with magnet stir bar was filled with 3-4 mL of the reaction solvent, sealed with a Teflon-lined screw cap and placed in the thermostatted sample block of the chemiluminescence-measuring apparatus (Black Box). Temperature control was provided by an external circulating water bath. Appropriate values for the instrument gain and optical slit size were selected. […]. The vial was sealed with a Teflon-lined screw cap to prevent evaporation when high temperatures were used. Measurement of the signal was begun by opening the shutter. The chemiluminescent decay was generally recorded for at least three half-lives. Calculation of the first-order rate constant, k, from the In(Intensity) vs. time data was performed by a computer program utilizing a standard least-squares treatment. The correlation coefficient, r, was typically at least 0.999 and varied less than 5% between replicate samples. The observed rate was not measurably concentration dependent.
Activation parameters for decomposition of the dioxetanes were calculated from plots of In k.vs. 1/T (Arrhenius eq.) or In k/t vs. 1/T (Eyring eq.) by a standard least-squares linear regression analysis.

[2] = format: physicochemical; details: for base-induced decomposition, chemiluminescence: room temperature
Experimental: (§1) A solution of the dioxetane in a suitable solvent (e.g. o-xylene) was placed in the reaction vial as described above. The vial was placed in the sample holder which was maintained at a temperature such that thermal decomposition of the dioxetane was negligible. Instrument parameters were selected as above and data collection started. A solution of the releasing agent (e.g. base or fluoride) preferably in the reaction solvent was injected by syringe into the rapidly stirred dioxetane solution. The volume of releasing agent added was generally less than 5% of the total volume so that temperature fluctuation of the sample during the time course of the decay was minimal. The pseudo-first order decay was monitored for at least three half-lives.
1. Triggering the Chemiluminescence of Hydroxy-Substituted Dioxetanes with Base: Potassium tert-butoxide induced decomposition of 2b. […].

[3] = format: physicochemical
Experimental: as §1
2. Triggering the Chemiluminescence of Silyloxy-Substituted Dioxetanes with Fluoride Ion: Fluoride ion induced decomposition of 2c. […]. […]. A spectrum of the chemiluminescence obtained from the fluoride triggering of 2c in 1:1 aqueous/2-methoxyethanol is shown in FIG. 1 with the solid line. The fluorescence of the cleavage product (methyl 6-hydroxy-2-naphthoate) from the dioxetane is also shown with the dashed line for comparison.

[4] = Triggering properties of further dioxetanes (general statement); format: physicochemical
Experimental: as §1

[5] = Stability of dioxetane in aqueous buffers (IMAX with delay before the enzyme was added); format: physicochemical
Experimental: Stability of Enzyme and Dioxetane to Reaction Conditions. Many dioxetanes are known to be destroyed via a non-luminescent pathway by acid catalyzed processes in aprotic solvents. Similarly, amines are also known to cause the catalytic destruction of dioxetanes via an electron-transfer process. The stability of the dioxetane to the aqueous buffers used in the enzyme reactions, especially Tris buffer, was a matter of concern. A series of experiments were performed to assess the stability of the dioxetane in these buffers over the expected time course of a typical run. A comparison was made between the maximum light intensity produced for a given buffer and temperature with delays of 0 and 30 minutes before the enzyme was added. If the dioxetane were decomposing in the buffer then IMAX of the run where the dioxetane was exposed to the buffer for 30 minutes would be lower provided the enzyme is not saturated. […] In 0.05M phosphate buffer, pH 7.6 at 25° C. and 37 ° C. the percent decrease in IMAX due to the 30 minute delay was, respectively, 0 and 7% while in 0.02M Tris buffer, pH 7.6 at 25° C. a 12% decrease was found and at 37° C. after a delay of one hour a 34% decrease occurred.

[6] = test system: Aryl esterase (carboxylic ester hydrolase) from porcine liver; assay: Enzymatic triggering of chemiluminescence with aryl esterase; format: biochemical; details: for effect of competing substrate on light intensity of 2e/esterase reaction: 10 μL of […] added at maximum emission, pH 7.6 phosphate buffer, 37° C.; for hydrolysis by the enzyme (UV spectroscopy): under the reaction conditions
Experimental: (§2) A secondary stock solution of the acetate-protected dioxetane 2e was made by evaporating an aliquot of the methylene chloride stock equivalent to 10 micromoles of dioxetane and dissolving in 5.0 mL of 2-methoxyethanol to give a final concentration of 0.002M. […] Buffer solutions prepared in distilled water were 0.05M phosphate pH 7.6 and 8.0, 0.02M Tris (tris-hydroxymethylaninomethane maleate) pH 7.6, and pH 9.0 phosphate/borate buffer. Aryl esterase (also called carboxylic ester hydrolase (P-5221)) from porcine liver was purchased from Sigma Chemical Co. as a suspension of 11 mg of protein per mL in 3.2M (NH4)2 SO4 solution pH 8.0. Each mg of protein is equivalent to 260 Units, where 1 Unit is defined as the amount which will hydrolyze 1 micromole of ethyl butyrate in 1 minute at pH 8.0, 25° C. […] Injection of 1 μL of […] of aryl esterase to the stirred solution caused a chemiluminescent signal to appear. The intensity reached a maximum at about 3 minutes and decayed over a 30 minute period.
(3.) When distilled water was substituted for the Tris buffer, no chemiluminescence signal was observed, but on adding Tris buffer to this solution light emission similar to that above was produced. […] Addition of untreated enzyme preparation to this solution again produced light. […] The emission could be totally extinguished by addition of sufficient SDS. The decrease in light emission is not due to photophysical quenching of the excited state since thermal decomposition in the same solvent system at elevated temperatures results in readily detectable chemiluminescence.
This type of behavior explains the effect of the addition of the known esterase substrates α-naphthyl acetate and β-naphthyl acetate. […] A solution of 25 μL of the dioxetane stock (0.002M) in 3 mL of pH 7.6 phosphate buffer maintained at 37° C. was treated with 5 μL of the enzyme to initiate the chemiluminescence. At the point of maximum emission 10 μL of 0.011M solution of either α- or β-naphthyl acetate were added.

[7] = format: physicochemical; details: 0.002M in 2-methoxyethanol, stored at 0° C.
Experimental: as §2

[8] = target: T1, Acetylcholinesterase from human erythrocytes (Homo sapiens, UniProt P22303); assay: Enzymatic triggering of chemiluminescence with acetylcholinesterase; format: biochemical; details: 10 μL stock in 3 mL 0.05M phosphate buffer pH 8.0, 37.0° C.
T1 construct: purchased Sigma Chemical Co. C-3389; host or cells: human erythrocytes
Source text: Acetylcholinesterase, an enzyme of considerable biological significance, hydrolyzes acetylcholine to choline and acetic acid under physiological conditions. It was of interest to determine whether this enzyme would also initiate the chemiluminescent decomposition of the acetyl-protected dioxetane 2e by removal of the acetyl group. Acetylcholinesterase (C-3389) from human erythrocytes was purchased from Sigma Chemical Co. as a lyophilized powder containing phosphate buffer salts. […]. Addition of more dioxetane during this period generated more light.

[9] = 0.3 μmol dioxetane, 0.26 units aryl esterase, pH 7.6 Tris buffer, 25° C.
[10] = compared with dioxetanes 2a-c and 2e
[11] = polar aprotic solvents such as acetonitrile

T1 sequence (P22303 other isoform, or with tags, fused parts or gaps): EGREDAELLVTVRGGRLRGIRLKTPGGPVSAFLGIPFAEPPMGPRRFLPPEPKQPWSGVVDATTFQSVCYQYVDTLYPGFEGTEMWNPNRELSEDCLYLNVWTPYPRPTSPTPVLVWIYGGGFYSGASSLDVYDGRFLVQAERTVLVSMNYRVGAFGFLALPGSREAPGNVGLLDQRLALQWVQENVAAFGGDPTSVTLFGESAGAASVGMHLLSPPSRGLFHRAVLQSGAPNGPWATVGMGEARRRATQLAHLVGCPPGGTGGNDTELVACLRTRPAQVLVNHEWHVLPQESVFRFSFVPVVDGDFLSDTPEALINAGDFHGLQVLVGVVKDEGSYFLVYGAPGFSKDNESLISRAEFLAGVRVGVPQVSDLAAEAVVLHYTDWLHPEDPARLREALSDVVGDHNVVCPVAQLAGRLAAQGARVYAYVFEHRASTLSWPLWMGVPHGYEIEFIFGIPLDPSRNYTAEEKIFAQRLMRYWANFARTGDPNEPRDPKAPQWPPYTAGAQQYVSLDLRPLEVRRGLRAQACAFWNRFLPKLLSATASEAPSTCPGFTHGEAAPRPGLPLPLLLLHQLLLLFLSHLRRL

## COC1(c2ccc3ccccc3c2)OOC12C1CC3CC(C1)CC2C3 (centres unmarked) [Dioxetane 2a, 4-Methoxy-4-(2-naphthyl)spiro[1,2-dioxetane-3,2'-adamantane]]
[1]
  Ea (activation energy for decomposition): 29.7
[1]; 25° C.
  k at 25° C.: 3.17e-09 s⁻¹

## COC1(c2ccc3cc(O)ccc3c2)OOC12C1CC3CC(C1)CC2C3 (centres unmarked) [Dioxetane 2b, 4-(6-Hydroxy-2-naphthyl)-4-methoxyspiro[1,2-dioxetane-3,2'-adamantane]]
[2]; 10^-4 M in o-xylene, potassium t-butoxide 0.005M, 25° C., 100 µM
  half-life of chemiluminescence decay, base triggered: approximately 20 seconds
[2]; in methanol with KOH or in o-xylene with n-BuLi
  base triggered chemiluminescence: bright blue chemiluminescence with similar decay rates
[1]
  Ea (activation energy for decomposition): 29.7
[1]; 25° C.
  k at 25° C.: 3.83e-09 s⁻¹

## COC1(c2ccc3cc(O[Si](C)(C)C(C)(C)C)ccc3c2)OOC12C1CC3CC(C1)CC2C3 (centres unmarked) [Dioxetane 2c]
[1]; 25° C., no fluoride
  half-life of decomposition in the absence of fluoride ion: 2.5 years
[1]
  Ea (activation energy for decomposition): 27.0
[1]; 25° C.
  k at 25° C.: 8.72e-09 s⁻¹
[3]; 10^-4 M in 0.01M tetrabutylammonium fluoride in 2-methoxyethanol, room temperature, 100 µM
  half-life of chemiluminescence decay, fluoride triggered: about 20 minutes

## COC1(c2ccc3cc(O[Si](c4ccccc4)(c4ccccc4)C(C)(C)C)ccc3c2)OOC12C1CC3CC(C1)CC2C3 (centres unmarked) [Dioxetane 2d]
[3]
  chemiluminescence in polar aprotic solvents: bright chemiluminescence
[4]
  triggering properties: triggering properties similar to dioxetanes 2a-c and 2e

## COC1(c2ccc3cc(OC(C)=O)ccc3c2)OOC12C1CC3CC(C1)CC2C3 (centres unmarked) [Dioxetane 2e, 4-(6-Acetoxy-2-naphthyl)-4-methoxyspiro[1,2-dioxetane-3,2'-adamantane]]
[5]; 0.02M Tris buffer pH 7.6, 25° C., 30 minute delay
  percent decrease in IMAX due to delay: 12%
[5]; 0.02M Tris buffer pH 7.6, 37° C., delay of one hour
  percent decrease in IMAX due to delay: 34%
[5]; 0.05M phosphate buffer pH 7.6, 25° C., 30 minute delay
  percent decrease in IMAX due to delay: 0%
[5]; 0.05M phosphate buffer pH 7.6, 37° C., 30 minute delay
  percent decrease in IMAX due to delay: 7%
[1]; aliquot in 3 mL o-xylene at 95° C.
  persistence of thermal chemiluminescence: persisted for several hours
[6]; [9]
  period of decay of chemiluminescence: 30 min
  time at which intensity reached a maximum: about 3 minutes
[6]; 1 μL enzyme, Tris buffer, 25°, 37° and 50° C.
  maximum light intensity, IMAX, versus temperature: increased with increasing temperature
[6]; 150 μL stock in 3.0 mL pH 7.6 Tris buffer, 25° C., before enzyme
  chemiluminescence signal without enzyme: no chemiluminescence signal was detected
[7]
  stability of stock solution: stable indefinitely
[8]
  duration of light emission: 20 s

## Oc1ccc2c(c1)C1(OOC13C1CC4CC(C1)CC3C4)c1ccccc1-2 (centres unmarked) [Dioxetane 4a]
[2]
  base-induced decomposition, chemiluminescence: produced chemiluminescence at room temperature
[4]; [10]
  triggering properties: triggering properties similar to dioxetanes 2a-c and 2e

## CC(C)(C)[Si](C)(C)Oc1ccc2c(c1)C1(OOC13C1CC4CC(C1)CC3C4)c1ccccc1-2 (centres unmarked) [Dioxetane 4b, Dispiro[adamantane-2,3'-[1,2]dioxetane-4',9"-(2-tert-butyldimethylsilyloxy-9-fluorene)]]
[3]; [11]
  chemiluminescence in polar aprotic solvents: bright chemiluminescence

## Oc1ccc2c(c1)Oc1ccccc1C21OOC12C1CC3CC(C1)CC2C3 (centres unmarked) [Dioxetane 6a]
[2]
  base-induced decomposition, chemiluminescence: produced chemiluminescence at room temperature
[4]; [10]
  triggering properties: triggering properties similar to dioxetanes 2a-c and 2e

## CC(C)(C)[Si](C)(C)Oc1ccc2c(c1)Oc1ccccc1C21OOC12C1CC3CC(C1)CC2C3 (centres unmarked) [Dioxetane 6b]
[3]
  chemiluminescence in polar aprotic solvents: bright chemiluminescence
[4]
  triggering properties: triggering properties similar to dioxetanes 2a-c and 2e

## CC(=O)Oc1ccc2c(c1)Oc1ccccc1C21OOC12C1CC3CC(C1)CC2C3 (centres unmarked) [Dioxetane 6c]
[4]; [10]
  triggering properties: triggering properties similar to dioxetanes 2a-c and 2e

## COC1(c2cccc(O)c2)OOC12C1CC3CC(C1)CC2C3 (centres unmarked) [Dioxetane 8a]
[2]
  base-induced decomposition, chemiluminescence: produced chemiluminescence at room temperature

## COC1(c2cccc(O[Si](C)(C)C(C)(C)C)c2)OOC12C1CC3CC(C1)CC2C3 (centres unmarked) [Dioxetane 8b, 4-(3-tert-Butyldimethylsilyloxyphenyl)-4-methoxyspiro[1,2-dioxetane-3,2'-adamantane]]
[3]; [11]
  chemiluminescence in polar aprotic solvents: bright chemiluminescence

## CCCCCCCCCCCCOS(=O)(=O)[O-].[Na+] [sodium lauryl sulfate (SDS), sodium lauryl sulfate]
[6]; added at maximum emission, Tris buffer, 1.5 μL enzyme
  effect of enzyme inhibitor on light emission of 2e/esterase reaction: irreversible decrease in the intensity

## CC(=O)Oc1cccc2ccccc12 [α-naphthyl acetate]
[6]
  effect of competing substrate on light intensity of 2e/esterase reaction: rapid decrease in light intensity was noted followed by restoration of the original intensity within less than one minute
  hydrolysis by the enzyme (UV spectroscopy): hydrolyzed by the enzyme in seconds

## CC(=O)Oc1ccc2ccccc2c1 [β-naphthyl acetate]
[6]
  effect of competing substrate on light intensity of 2e/esterase reaction: rapid decrease in light intensity was noted followed by restoration of the original intensity within less than one minute
  hydrolysis by the enzyme (UV spectroscopy): hydrolyzed by the enzyme in seconds

— patent publication US4857652A, “Chemiluminescent 1,2-dioxetane compounds” (priority 1988, dated 1989)
